Literature values, collected in the CATMoS acute toxicity set (Mansouri et al. 2021).
Values joined by “and” are separate entries in the source; they are usually repeats but may differ in a detail not shown here. Equal values may be shown once.

Assay: rat acute oral toxicity
Conditions: in vivo

Compound | LD50
COc1cc(CCC(C)=O)ccc1O | 2580 mg/kg
FC(F)(F)c1nc2c(Cl)cc(Cl)cc2[nH]1 | 3.29 mg/kg
O=C(C(F)(F)F)C(F)(F)F | 190 mg/kg and 191 mg/kg
CCCCN(C=O)CCCC | 620 mg/kg
Cc1ccn(CO)n1 | 1650 mg/kg
COc1nc(Cl)nc(OC)n1 | 870 mg/kg
O=C(Nc1cc(Cl)cc(Cl)c1O)c1c(O)c(Cl)cc(Cl)c1Cl | 1000 mg/kg
COCCOc1c(OC)cc(Cc2cnc(N)nc2N)cc1OC | 1170 mg/kg
CC(C)=CC(NC(=O)C1=C([O-])c2sc(Cl)cc2S(=O)(=O)N1C)[n+]1ccccc1 (stereo unspecified) | 10 mg/kg
CCCCC(CC)COC(C[n+]1ccccc1)c1ccc(C2CCCCC2)cc1 (stereo unspecified) | 250 mg/kg
CCOP(=O)(OCC)OC(=C(Cl)Cl)c1ccc(Cl)cc1Cl | 30.2 mg/kg
CS(=O)c1ccc(Cl)cc1 (stereo unspecified) | 463 mg/kg
CN(C)C(=O)c1ccccc1O | 2300 mg/kg
CSC(=N)N | 800 mg/kg
NC(=O)COc1ccc(Cl)cc1Cl | 1200 mg/kg
O=C=Nc1ccc(Cc2ccc(N=C=O)cc2)cc1 | 9200 mg/kg
O=C(CCCN1CCC(n2c(=S)[nH]c3ccccc32)CC1)c1ccc(F)cc1 | 232 mg/kg
CCN(Cc1ccccc1)N=O | 250 mg/kg
CCc1ccc([N+]([O-])=Cc2ccccc2)cc1 | 1340 mg/kg
CC(=O)C1(O)CCC(c2ccccc2)CC1 (stereo unspecified) | 8000 mg/kg
CCC1CCC(C)NC1 (stereo unspecified) | 540 mg/kg
CC(C)(O)CCc1ccccc1 | 2200 mg/kg
C=CCc1ccc(OC)cc1 | 1230 mg/kg

Compound | LD50
CCN(CC)C(=O)CCl | 500 mg/kg
NC(=S)Nc1ccccc1 | 3 mg/kg
CN(C)N(C)N=O | 95 mg/kg
Cc1ccc(NC2=NCCN2)c(Cl)c1 | 420 mg/kg
O=C(O)c1ccccc1Cl | 1140 mg/kg
COP(=O)(OC1CCCCC1)Sc1ccc(Cl)cc1 (stereo unspecified) | 160 mg/kg
O=c1[nH]c(=O)n([C@H]2C[C@H](O)[C@@H](CO)O2)cc1Br | 8400 mg/kg
CCCCCl | 2670 mg/kg
Cc1c(C)c(C)c2[nH]c(C(F)(F)F)nc2c1C | 58 mg/kg
CNC(=O)ON=C1CSCCSC1 | 400 mg/kg
c1ccc2c(c1)OCCOCCOc1ccccc1OCCOCCO2 | 2600 mg/kg
CN1C(=O)CN=C(c2ccccc2F)c2cc(Cl)ccc21 | 1740 mg/kg
O=C(O)c1ccc2ccccc2c1 | 4500 mg/kg
COc1cc(Cc2cnc(N)nc2N)cc(OC)c1OC | 200 mg/kg
CN1CCC2(C)c3cc(OC(=O)NCCCCCCCCN4CCOCC4)ccc3N(C)C12 (stereo unspecified) | 23 mg/kg
CN(Cc1ccccc1)N=O | 18 mg/kg
Cc1ccsc1/C=C/C1=NCCCN1C | 926 mg/kg
CCN1CCNCC1 | 2160 mg/kg
O=C(Cl)c1ccc([N+](=O)[O-])cc1 | 5600 mg/kg
NC(Cc1ccc(Oc2ccc(N(CCCl)CCCl)cc2)cc1)C(=O)O (stereo unspecified) | 620 mg/kg
Cc1c(Nc2ccccc2C(=O)O)ccc(O)c1Cl | 1850 mg/kg
CC1(S(=O)(=O)O)CC(=O)c2ccccc2C1=O (stereo unspecified) | 4510 mg/kg
CC(=O)c1ccc2c(c1)N(CCCN(C)C)c1ccccc1S2 | 400 mg/kg

Compound | LD50
CCCCCC1=CCCC1=O | 2200 mg/kg
C[Si](Cl)(Cl)Cl | 800 mg/kg
COc1c(Cl)ccc2[nH]c(C(F)(F)F)nc12 | 3.15 mg/kg
CC(C)C(=O)OCc1ccccc1 | 2850 mg/kg
CCCc1c(OCc2cccn3c(=O)c(CCC(=O)O)cnc23)ccc(C(C)=O)c1O | 4000 mg/kg
Cc1cccc2ccccc12 | 1840 mg/kg
CCCSc1ccc2[nH]c(NC(=O)OC)nc2c1 | 2400 mg/kg
CC(=O)Nc1cccc2c3ccccc3n(C)c12 | 3120 mg/kg
Cc1ccc(C2(O)CCN(CCCC(=O)c3ccc(F)cc3)CC2)cc1 | 152 mg/kg
CC(C)=CC1C(C(=O)O)C1(C)C (stereo unspecified) | 2500 mg/kg
Oc1c(Cl)cnc(Cl)c1Cl | 80 mg/kg
N#Cc1c(Cl)cccc1Cl | 2710 mg/kg
CC1(C)SCN(C(=O)C2(Oc3ccc(Cl)cc3)CCCCC2)C1C(=O)O (stereo unspecified) | 4350 mg/kg
CCOP(=O)(OCC)SCn1nc(Cl)c(C)cc1=O | 27 mg/kg
C[n+]1cc2c3c(ccc2c2ccc4cc5c(cc4c21)OCO5)OCO3 | 1660 mg/kg
C=C(C)C1CC=C(C)C(O)C1 (stereo unspecified) | 3000 mg/kg
CCCCC(C)(C)[C@H](O)C=C[C@H]1[C@H](C)CC(=O)[C@@H]1CC=CCCCC(=O)O | 22 mg/kg
CC(=O)OC(C)(C)C1CC=C(C)CC1 (stereo unspecified) | 5080 mg/kg
NNc1ccc(N(CCO)CCO)nn1 | 1800 mg/kg
Nc1nc(N)nc(NC2CC2)n1 | 3390 mg/kg
Fc1ccc(C(c2ccccc2)(c2ccccc2F)n2ccnc2)cc1 (stereo unspecified) | 808 mg/kg
O=C(O)C[C@H](NC(=O)COc1ccc(Cl)cc1Cl)C(=O)O | 1000 mg/kg
O=c1[nH]c(=O)c2ccccc2o1 | 750 mg/kg

Compound | LD50
CNC(=S)NNc1cc(C(F)(F)F)cc(C(F)(F)F)c1 | 414 mg/kg
O=C(O)c1ccccc1Nc1c(Cl)cc(Cl)c2ccccc12 | 8500 mg/kg
COc1ccc(C)cc1NC(C)=O | 2240 mg/kg
CCN1CCC(=C2c3ccccc3CCc3ccccc32)C1C (stereo unspecified) | 600 mg/kg
FC(F)(F)c1nc2c(Br)c(Br)c(Cl)c(Br)c2[nH]1 | 8.32 mg/kg
C1C[C@H]2C[C@@H]1[C@H]1SSS[C@@H]21 | 300 mg/kg
CCc1c(C)[nH]c2c1C(=O)C1CN(C)CCC1C2 (stereo unspecified) | 220 mg/kg
CCC(C)OC(CBr)c1cccc(Cl)c1 (stereo unspecified) | 250 mg/kg
Cn1c2ccccc2c2cc(N)ccc21 | 347 mg/kg
CCOC(C1=NCCCN1)c1ccc(Cl)c(Cl)c1 (stereo unspecified) | 370 mg/kg
CC1OCC(CN(C)C)O1 (stereo unspecified) | 575 mg/kg
ClCCN1CCCC(C(c2ccccc2)c2ccccc2)C1 (stereo unspecified) | 970 mg/kg
CSC(=S)N(C)C | 62 mg/kg
O=C(OCCCl)c1ccccc1C(=O)OCCCl | 730 mg/kg
CCNC(C)c1ccccc1 (stereo unspecified) | 360 mg/kg
CO[C@@]1(NC(=O)CSCC#N)C(=O)N2C(C(=O)O)=C(CSc3nnnn3C)CS[C@@H]21 | 3200 mg/kg
O=C1CCC2CCCCC2O1 (stereo unspecified) | 3900 mg/kg
CCNc1nc(NC(C)C(C)C)nc(SC)n1 (stereo unspecified) | 3000 mg/kg
Cc1ccc(C=O)o1 | 2200 mg/kg
Cc1ccc([N+](=O)[O-])cc1S(=O)(=O)Cl | 7470 mg/kg
CNS(=O)(=O)OCC(=O)N1CCCCCC1 | 2040 mg/kg
CN(C)CCCN | 1870 mg/kg
CCCN=C(C(OCC)c1ccccc1)N1CCCCCC1 (stereo unspecified) | 220 mg/kg

Compound | LD50
NC(=O)C1c2ccccc2CCc2ccccc21 | 2400 mg/kg
CC1(CCl)COC1 | 1120 mg/kg
CC(C)COCC(C)O (stereo unspecified) | 4290 mg/kg
C1CCCC1 | 11400 mg/kg
CCc1cccc(C)c1N | 885 mg/kg
O=S(=O)(O)Oc1ccc(C(c2ccc(OS(=O)(=O)O)cc2)c2ccccn2)cc1 | 11300 mg/kg
Cc1nc2ccccc2n1Cc1ccc(Cl)cc1 | 2200 mg/kg
CN1CC[C@@]23CCCC[C@@H]2[C@@H]1Cc1ccc(O)cc13 | 1100 mg/kg
O=C(O)C(Cc1cc(I)c(O)c(I)c1)c1ccccc1 (stereo unspecified) | 1100 mg/kg
CCN(CC)CCCC(C)Nc1c2cc(Cl)ccc2nc2ccc(OC)cc12 (stereo unspecified) | 4400 mg/kg
CCc1ccc(Oc2ccc(C)cc2CC(=O)O)c(Cl)c1 | 2850 mg/kg
CON(C)C(=O)/C=C(\C)OP(=O)(OC)OC | 2 mg/kg
CCCCCCC#CC(=O)OC | 2220 mg/kg
O=C1CCc2cc(C(=O)CCN3CCN(c4ccccc4)CC3)ccc2N1 | 500 mg/kg
Cc1ccc2c(c1)C(N1CCN(C)CC1)=Nc1ccccc1S2 | 934 mg/kg
CN1CC[C@]23c4c5ccc(O)c4O[C@H]2[C@H](N=[N+]=[N-])CC[C@H]3[C@H]1C5 | 62 mg/kg
CCCCCCCCN | 315 mg/kg
COc1c(Cl)c(Cl)c(OC)c2[nH]c(C(F)(F)F)nc12 | 100 mg/kg
COC(=NC#N)OC | 1500 mg/kg
